We go through seven compounds from patent US20190192510A1, “GPR119 AGONIST” (NIPPON CHEMIPHAR CO., LTD., priority 2010, published 2019).

Each structure is given as a SMILES string. Where two headings read alike, the source gives them in different places.

The target in one series is T1, human GPR119 (Homo sapiens, UniProt Q8TDV5).
T1 sequence (Q8TDV5 1-335): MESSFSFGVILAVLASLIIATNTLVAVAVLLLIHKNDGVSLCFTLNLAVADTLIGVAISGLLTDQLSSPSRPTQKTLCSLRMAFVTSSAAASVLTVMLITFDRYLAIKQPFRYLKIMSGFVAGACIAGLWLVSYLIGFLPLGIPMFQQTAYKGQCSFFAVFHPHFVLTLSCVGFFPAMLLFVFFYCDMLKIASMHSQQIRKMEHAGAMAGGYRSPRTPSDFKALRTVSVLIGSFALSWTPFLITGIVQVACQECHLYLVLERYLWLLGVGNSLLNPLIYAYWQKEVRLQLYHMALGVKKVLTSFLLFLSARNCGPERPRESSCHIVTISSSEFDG
As to the kind of experiment: Intracellular cAMP increase in human GPR119 introduced cells (Pharmacological Experiments 1 and 2). Particulars: for GPR119 agonist effect: result in words, refers to Tables 12 and 13. The format is cell-based.
Text: The GPR119 agonist effect is studied by measuring the effect of an analyte on increase of intracellular amount of cAMP in human GPR119 introduced cells. The testing method is described below.
Human GPR119 gene (NM 178471) is purchased from ATCC (ATCC No. 10807349), and is amplyfied according to PCR to form BamHI site at 5′ side and Apa I site at 3′ side. The forward side primer is […] (sequence No. 1), and the reverse side primer is […] (sequence No. 2). The PCR conditions are described below.
(§1) The double-stranded DNA is thermally denatured using a DNA polymerase (KOD-Plus-Ver. 2; TOYOBO #KOD-211) at 98° C. for 10 seconds in one cycle. The denatured single-stranded DNA is annealed with the primers at 55° C. for 30 seconds. The DNA is subjected to an extension reaction at 68° C. for 1 minute and 15 seconds. The above-mentioned steps are repeated in 35 cycles. The PCR product is inserted into pcDNA5/FRT/TO (Invitrogen #V6520-20) plasmid. Flp-in T-Rex-293 cells (Invitorogen #R78007) are transfected with the obtained plasmid. The method of transfection is conducted in accordance with the protocol of the product.
The stable cell line expressing human GPR119 prepared in the above-mentioned method is plated on a 96-well plate at the concentration of 2,500 cells/well using Dulbecco's Modified Eagle Medium (DMEM) containing 10% fetal bovine serum (FBS). Twenty-four hours after plating, tetracyclin (Invitrogen #Q10019) is added at the final concentration of 20 ng/mL to induce hGPR119 gene expression. Twenty-four hours after, the medium is removed, and the cells are stimulated with an assay buffer (0.5 mM IBMX PBS(−)) containing the test compound at 37° C. for 30 minutes. The amount of the intracellular cAMP is measured using a commercially available kit (HitHunter™ cAMP XS+ Assay: GE Healthcare #90007503) and a reader (FLUOstar Optima: BMG LABTECH). The test compound is dissolved in 100% DMSO, and added at the final concentration of 1%.
Human GPR119 gene (NM 178471) was purchased from ATCC (ATCC No. 10807349), and is amplyfied according to PCR to form BamHI site at 5′ side and Apa I site at 3′ side. The primers were […] (sequence No. 1) and […] (sequence No. 2). The PCR conditions are described below.
as §1, with “was” for “is”, “were” for “are”
The stable cell line expressing human GPR119 prepared in the above-mentioned method was plated on a 96-well plate at the concentration of 2,500 cells/well using Dulbecco's Modified Eagle Medium (DMEM) containing 10% fetal bovine serum (FBS). Twenty-four hours after plating, tetracyclin (Invitrogen #Q10019) was added at the final concentration of 20 ng/mL to induce hGPR119 gene expression. Twenty-four hours after, the medium was removed, and the cells were stimulated with an assay buffer (0.5 mM IBMX PBS (−)) containing the test compound at 37° C. for 30 minutes. The amount of the intracellular cAMP was measured using a commercially available kit (HitHunter™ cAMP XS+ Assay: GE Healthcare #90007503) and a reader (FLUOstar Optima: BMG LABTECH). The test compound was dissolved in 100% DMSO, and added at the final concentration of 1%.
The examination was performed by the method similar to Example 61 Pharmacological experiment 1-(1), 1-(2).

Another series deals with normal mice. As to the kind of experiment: Oral glucose tolerance test in normal mice (Pharmacological Experiment 3). The format is in vivo. How it is done: Oral glucose tolerance is tested in normal mice.
In this experiment, the inhibitory effect of a test compound on glycemic excursions is examined after glucose administration in normal mice. The test methods are described below.
Male 9-week-old ICR mice, habituated to the experimental environment for two weeks, are fasted for 18 hours and used to this experiment. Mice are orally administered the analyte or vehicle (polyethylene glycol 400:ethanol:Tween 80=8:1:1). After 30 minutes, they were orally given glucose at the dose of 3 g/kg.
Blood is collected at just before the analyte or vehicle administration (−30 minutes), immediately before glucose challenge (0 minute), 20 minutes, 40 minutes, 60 minutes, and 120 minutes after glucose ingestion to determine blood glucose levels.
Inhibition rate (%) of the test compound versus vehicle in areas under the glycemic excursion curve between 0 minute and 120 minutes after glucose challenge is determined. […]
Blood was collected at just before the test compound or vehicle administration (−30 min), immediately before glucose challenge (0 min), 20 min, 40 min, 60 min and 120 min after glucose ingestion and then blood glucose levels were determined.
Inhibition rate (%) of the test compound versus vehicle in areas under the glycemic excursion curve between 0 and 120 min after glucose challenge was determined.

Setting [1] is: Table 12, Flp-in T-Rex-293 cells stably expressing hGPR119, intracellular cAMP, 37° C. for 30 minutes, read-out: EC50.

`CC(C)(C)OC(=O)N1CC=C(c2cnc(COc3ccc(S(C)(=O)=O)c(F)c3F)cn2)CC1` [Example 18, tert-Butyl 4-[5-(2,3-difluoro-4-methanesulfonylphenoxymethyl)pyrazin-2-yl]-3,6-dihydro-2H-pyridine-1-carboxylate] gave a melting point of 176 to 179 °C. Also, the EC50 at human GPR119 (setting [1]) is 110 nM.
For the compound `CS(=O)(=O)c1cc(F)c2c(ccn2Cc2cnc(C3CCN(c4ncc(Br)cn4)CC3)cn2)c1` [Example 51, 5-Bromo-2-[4-[5-(7-fluoro-5-methanesulfonylindol-1-ylmethyl)pyrazin-2-yl]piperidine-1-yl]pyrimidine], the EC50 on human GPR119 (Table 13, Pharmacological experiment 2, method similar to Example 61, read-out: EC50) is 5.4 nM. The GPR119 agonist effect entry on human GPR119 is on record as “excellent GPR119 agonist effect”.
`CC(C)(C)OC(=O)N1CCC(c2cnc(COc3ccc(S(C)(=O)=O)cc3)nc2)CC1` [Example 1, tert-Butyl 4-[2-(4-methanesulfonylphenoxymethyl)pyrimidin-5-yl]piperidine-1-carboxylate]: the EC50 on human GPR119 (setting [1]) was 313 nM.
With `CC(C)(C)OC(=O)N1CCC(c2cnc(Cn3ccc4cc(S(C)(=O)=O)ccc43)cn2)CC1` [Example 9, tert-Butyl 4-[5-(5-methanesulfonylindol-1-ylmethyl)pyrazin-2-yl]piperidine-1-carboxylate], the EC50 at human GPR119 (setting [1]) was 13.8 nM. The GPR119 agonist effect result on human GPR119 is recorded as “excellent GPR119 agonist effect”. Moreover, the “Inhibition rate (%)” value with normal mice (1 mg/kg oral, male ICR mice, area under glycemic excursion curve 0-120 min after glucose 3 g/kg, versus vehicle) amounted to 31.1%. Moreover, the “inhibitory effect on glycemic excursions” value in the series with normal mice (result in words, refers to Table 14) is recorded as “excellent inhibitory effect on glycemic excursions”.
`CC(C)(C)OC(=O)N1CC=C(c2cnc(COc3ccc(-n4cncn4)cc3)cn2)CC1` [Example 13, tert-Butyl 4-[5-[4-(1,2,4-triazol-1-yl)phenoxymethyl]pyrazin-2-yl]-3,6-dihydro-2H-pyridine-1-carboxylate]: the melting point is 152 to 154 °C. Moreover, on human GPR119 (setting [1]), the EC50 stood at 130 nM.
For `CC1CN(C(=O)OC(C)(C)C)CC=C1c1cnc(Cn2ccc3cc(S(C)(=O)=O)cnc32)cn1` (stereo not shown) [Example 15, tert-Butyl 4-[5-(5-methanesulfonyl-1H-pyrrolo[2,3-b]pyridin-1-ylmethyl)pyrazin-2-yl]-3-methyl-3,6-dihydro-2H-pyridine-1-carboxylate], the EC50 on human GPR119 (setting [1]) amounted to 126 nM.
In the case of `CC(C)(C)OC(=O)N1CCC(c2cnc(Cn3ccc4cc(-n5cnnn5)cc(F)c43)nc2)CC1` [Example 49, tert-Butyl 4-[2-[7-fluoro-5-(tetrazol-1-yl)indol-1-ylmethyl]pyrimidin-5-yl]piperidine-1-carboxylate], the EC50 at human GPR119 is 30.1 nM.

Broadly, the EC50 is the midpoint of the concentration-response curve. For orientation: melting point means the temperature of the solid-liquid transition.
